Data set [1] relates to hyperoxia-exposed BPD mouse model. Kind of data set: Hyperoxia-exposed BPD mouse model: dose response and lung morphometry. Type of data set: in vivo. The procedure: Simultaneously, the AVR-48 nanosuspension formulation IN (0.11 mg/kg) was tested as well as in solution form, IP and IV (10 mg/kg) (through the facial vein), and confirmed that all routes of administration gave similar outcomes. […] From the PK study, as described above, the bioavailability of the drug in the plasma and lungs were similar when delivered as solution formulation via either IN or IP routes. As the goal of this study is to develop AVR-48 as a commercially viable and applicable therapeutic candidate for BPD, the IP route was selected as the preferred mode of drug delivery in neonatal murine pups, with the rationale that it would be easier to deliver the drug systemically to preterm babies IV, rather than the IN route. The results and outcome of all the routes of administration have been presented in a cumulative manner, as the endpoint was similar for all routes of administration. […] FIG. 1 is a dose response study of AVR-48 at different doses of […], given IP. ****p<0.0001. N=5-7 mice per group. 10 mg/kg (IP) was selected as the most efficacious dose. IP: intraperitoneal; Hyp: hyperoxia; BPD: Bronchopulmonary dysplasia.
Formulation of AVR-48 for efficacy and toxicokinetic studies. For the mouse dose response efficacy studies, AVR-48 was reconstituted in 0.9% sterile normal saline to give a final dose concentration of […] as a colorless solution, and injected IP (30 μl) on P2 and P4. The PLGA encapsulated AVR-48 or the GFP-tagged analog was resuspended in deionized sterile water to make a nanosuspension with final dose concentration of 0.025, 0.05 and 0.11 mg/kg/drop. The surfactant Curosurf® (Cheisi Parma, Italy), available commercially, was delivered IN at a volume of 3 μl per nostril, on P2 and P4. For the toxicokinetic study of AVR-48 in rat pups, a formulation of 10% DMSO, 20% tetraglycol, 20% PEG 400, and 50% sterile water was made fresh before administration (Shah, Das et al. 2021).
For the hyperoxia experiment, newborn pups were exposed to 100% hyperoxia (P0), along with their mothers, in cages in an airtight Plexiglas chamber (OxyCycler; Biospherix, Redfield, NY, USA) as described previously by the present inventors (Syed, Das et al., 2017, Leary, Das et al. 2019, Das, Acharya et al. 2020, relevant portions incorporated herein) for 4 consecutive days (till P4) and removed to RA on P5 to be recovered till P14, so as to emulate the human BPD condition. All pups were sacrificed on P14 for further experimental analyses. The pups without any hyperoxia exposure served as the corresponding RA (normoxia) controls.
Histology, immunohistochemistry and immunofluorescence. Both the RA control and BPD mice were anesthetized (using an overdose of a cocktail of xylazine-ketamine) and lung and heart tissues were harvested after perfusion and fixed overnight in 4% paraformaldehyde. Fixed tissues were then washed in fresh PBS, dehydrated using 70% ethanol, cleared, and embedded in paraffin to be sectioned and stained with hematoxylin and eosin (H&E) for lung morphometry or immunohistochemistry/immunofluorescence as previously described (Leary, Das et al. 2019, Das, Achaiya et al. 2020, Das, Curstedt et al. 2020). Immunofluorescence staining was done for Ki67 (Abcam, 1:10) and Von Wilebrand Factor (vWF-DAKO, 1:100) on lung paraffin sections following the protocol as described earlier (Leary, Das et al. 2019) while TUNEL staining was done following the manufacturer's instructions (Roche).
Morphometry and quantification. To study chord length, septal thickness and radial alveolar count in the lungs, RV, LV and IVS thickness, 5 μm-thick left-lobe lung and heart paraffin-embedded sections were stained with H&E. Multiple randomly chosen areas (at least 10 areas) from each section were photographed using 100× total magnification. […]

Data set [2] is described as follows: PK in preterm lambs after IV dosing. Type of data set: in vivo, lamb. The procedure:
A total 9 lambs were used for this study. One dose of Curosurf was given intratracheally to the PT lamb just after birth. Randomized doses of compound AVR-48 (8) (0, 0.1, 0.3, 1.0 and 3.0 mg/kg) were administered intravenously every 12 hr after the initial dose that will be given at 6 hr after delivery to n=2-4 lambs via slow intravenous injection. The beginning treatment at 6 hr post-delivery is selected to represent the human case where neonatologists attempt to allow an infant to breath without mechanical ventilation, if possible, and then begin invasive respiratory support as necessary. Whole blood was drawn from PT lambs at the time of delivery (“pre-dose”), immediately after dosing (IAD), at 15, 30, 45, and 60 min, and at 2, 4, 8, 12, 24, 48, 72, and 96 hr after the initial dose. Plasma extractions and bioanalysis of compound AVR-48 (8) were performed using a qualified bioanalysis method already developed by us. The PK parameters were calculated following both non-Compartmental Pharmacokinetic Modeling and population Pharmacokinetic Modeling as described by Roberts et al previously (Roberts, Stockmann et al. 2016). Blood was collected every 15 min for the first 90 min of postnatal life, followed by every 3 hours for 12 hours and then spaced at 1.5 d, 2.5 d, 3.5 d, 6.5 d, and 9.5 d for analysis of cytokines (Visconti, Senthamaraikannan et al. 2018) and VEGF levels (Albertine, Dahl et al. 2010). The blood samples also were analyzed for hematology and liver enzymes. After 6-7 d of mechanical ventilation, the lambs will be weaned from mechanical ventillation and weaned to non-invasive support for 3 d to ascertain longer-term outcome (Dahl, Bowen et al. 2018). Terminally, the PT lambs were euthanized after 10 days and their heart/lungs and brain were removed. Ex vivo BAL of the right cranial lobe (it has its own bronchus, pulmonary artery and vein) was done for similar analyses. Tracheal aspirates were collected according to the protocol for cytokines, BAL protein, ICAM-1 and VEGF. The spleen was collected to analyze immune cell population, using FACS.

Data set [3] concerns human cord blood monocytes (CBMC). Nature of the data set: Cytokines in human cord blood monocytes (CBMC). In kind it is cell-based. The text has this:
IL-12p40, is a marker for the innate immune response to infection and is down regulated in CBMC.

Data set [4] can be described thus: PK study in rat pups by SC or IV (plasma, BALF). In kind it is in vivo. The conditions noted are these: for accumulation ratio using AUC(0-t): BALF, SC.
[5] abbreviates: 2 doses IP 10 mg/kg on P2 and P4, comparable to RA controls.
[6] abbreviates: IP dosing, doses 0.5, 2.0, 5.0 and 10 mg/kg.
The mark [7] stands for this setting: sheep, plasma, single IV dose 3.0 mg/kg/dose saline solution, n=3 preterm lambs.

As for `CC(=O)N[C@@H]1C(Oc2ccc([N+](=O)[O-])cc2)OC(CO)C(O)C1O` (some centres unmarked) [AVR-48], the “prevention of the BPD phenotypes” value in data set [1] (10 mg/kg IP) is greater than 80%. Also, in data set [1] (setting [5]), the “chord length (alveolar sacs)” value is “regained their normal shape and size”; the “septal thickness (alveolar sacs)” value was “regained their normal shape and size”. The “radial alveolar counts (RAC)” value in data set [1] (2 doses IP 10 mg/kg on P2 and P4, vs BPD) is listed as “improved”. Besides, the chord length result in data set [1] (AVR-48 administered adjuvantly with CS (Curosurf IN)) is “normal”. Besides, in data set [1] (AVR-48 administered adjuvantly with CS in mouse pups), the “interaction between the drug and CS” value was “no adverse effect”. Further, in data set [1] (setting [6]), the minimum efficacious dose is recorded as 5.0 mg/kg and the “optimum / most efficacious dose” value is recorded as 10 mg/kg. The minimum efficacious dose in data set [1] (juvenile mouse) is 5 mg/kg/day. The “inflammatory cytokines in neonatal mouse pups with BPD” value in data set [1] (mouse, in vivo) is recorded as “decrease inflammatory cytokines”. The drug accumulation result in data set [2] (repeat IV dosing for 7 days) is “no drug accumulation”. In data set [2] (setting [7]), this molecule showed a Cmax of 12.2 ± 5.6 µM and a half-life of 33.6 min. The plasma concentration profile entry in data set [2] (single IV dose 3.0 mg/kg/dose) is “linear decline in drug concentration”. In addition, the IL-10 increase in data set [3] (AVR-48 alone, 0.1-10 μM) is recorded as roughly 2.5 fold. In addition, in data set [3] (LPS+AVR-48, 10 μM), the IL-1β result is given as “decreased” and the IL-10 entry is on record as “decreased”. For the same molecule, the IL-12p40 response result in data set [3] (compound alone (10 μM) or with LPS, compared with only LPS) is “higher IL-12p40 response than only LPS”. Moreover, in data set [3] (human CBMC, LPS), the TNF-α levels result is “decreased”. The “accumulation ratio using AUC(0-t)” value in data set [4] (100 mg/kg/day) came to 1.90. Besides, in data set [4] (150 mg/kg/day), the “accumulation ratio using AUC(0-t)” value is on record as 0.880. Further, the AUC(0-t) in data set [4] (Sprague Dawley Crl:CD, rat, in vivo, sc, AUC(0-t)) is 2610 ng·h/mL. Further, the “AUC(0-t) dose proportionality” value in data set [4] (rat, in vivo, sc, 75 mg/kg) is recorded as “increased in a dose-proportional manner”.

Broadly, the Cmax is the maximum level reached in the sampled fluid or tissue. A word on the half-life: it is how long it takes for the measured level to halve. By AUC(0-t) is commonly meant exposure summed from dosing to a finite time, without extrapolation to infinity.

Values taken from patent US12440471B2, “Compositions and methods for the treatment of bronchopulmonary dysplasia (BPD) and BPD-associated pulmonary hypertension” (AyuVis Research, Inc., priority 2021, dated 2025).
